Measurements as given in ChEMBL document CHEMBL6127036, “Chaperoning system: Intriguing target to modulate the expression of CFTR in cystic fibrosis” (Eur J Med Chem, 2024).

Assays:
[1] = system: Cystic fibrosis transmembrane conductance regulator (Homo sapiens), P13569 [F508del]; test: Inhibition of CFTR F508del mutant (unknown origin) in FRT cells; format: cell-based
[2] = Inhibition of HSP70 (unknown origin) expressed in human HeLa cells; format: cell-based
[3] = molecular target: Cystic fibrosis transmembrane conductance regulator (Homo sapiens) (UniProt P13569); test: Activation of human CFTR expressed in rat FRT cells at 30 uM relative to control; format: cell-based; conditions: filed as activator
Sequence of Cystic fibrosis transmembrane conductance regulator (Homo sapiens) (P13569 whole entry, looked up): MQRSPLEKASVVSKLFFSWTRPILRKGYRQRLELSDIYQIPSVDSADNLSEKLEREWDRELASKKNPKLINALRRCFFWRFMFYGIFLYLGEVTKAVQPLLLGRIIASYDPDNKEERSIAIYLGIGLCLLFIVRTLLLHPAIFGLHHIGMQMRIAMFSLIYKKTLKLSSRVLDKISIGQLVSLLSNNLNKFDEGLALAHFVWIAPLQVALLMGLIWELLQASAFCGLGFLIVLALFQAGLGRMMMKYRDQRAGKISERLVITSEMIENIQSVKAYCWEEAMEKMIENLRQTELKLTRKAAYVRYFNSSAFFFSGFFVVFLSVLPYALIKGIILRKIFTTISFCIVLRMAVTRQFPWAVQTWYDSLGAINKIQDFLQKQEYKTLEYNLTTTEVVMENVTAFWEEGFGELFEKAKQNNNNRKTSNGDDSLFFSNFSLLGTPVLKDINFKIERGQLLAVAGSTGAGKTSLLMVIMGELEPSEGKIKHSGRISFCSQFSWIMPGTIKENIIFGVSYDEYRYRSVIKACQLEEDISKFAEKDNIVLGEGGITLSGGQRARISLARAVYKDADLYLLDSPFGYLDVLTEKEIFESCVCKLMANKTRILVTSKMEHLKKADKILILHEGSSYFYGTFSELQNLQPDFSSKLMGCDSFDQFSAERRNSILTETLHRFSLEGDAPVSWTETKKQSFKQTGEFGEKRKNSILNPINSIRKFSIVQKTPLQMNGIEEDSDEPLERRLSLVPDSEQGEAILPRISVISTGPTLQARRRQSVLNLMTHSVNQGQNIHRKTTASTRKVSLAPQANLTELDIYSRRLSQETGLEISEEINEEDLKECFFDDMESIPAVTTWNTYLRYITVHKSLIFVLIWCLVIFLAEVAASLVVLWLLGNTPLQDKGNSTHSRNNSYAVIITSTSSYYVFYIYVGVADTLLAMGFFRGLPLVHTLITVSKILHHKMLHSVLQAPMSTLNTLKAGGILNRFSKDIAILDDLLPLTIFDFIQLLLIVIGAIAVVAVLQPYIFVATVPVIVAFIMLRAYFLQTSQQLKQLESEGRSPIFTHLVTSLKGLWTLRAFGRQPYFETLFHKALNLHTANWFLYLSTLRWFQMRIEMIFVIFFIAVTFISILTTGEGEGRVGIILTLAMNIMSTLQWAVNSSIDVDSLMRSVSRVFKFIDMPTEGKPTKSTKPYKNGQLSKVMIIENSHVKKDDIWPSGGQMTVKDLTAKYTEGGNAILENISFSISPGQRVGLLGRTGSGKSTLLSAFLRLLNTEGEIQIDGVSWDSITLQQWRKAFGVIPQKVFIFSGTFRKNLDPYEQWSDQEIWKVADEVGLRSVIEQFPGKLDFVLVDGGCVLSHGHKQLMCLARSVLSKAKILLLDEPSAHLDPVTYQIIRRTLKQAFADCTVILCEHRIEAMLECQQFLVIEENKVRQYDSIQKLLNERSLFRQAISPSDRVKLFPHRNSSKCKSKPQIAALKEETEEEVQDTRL

[4] = molecular target: Cystic fibrosis transmembrane conductance regulator (Homo sapiens) (UniProt P13569); test: Inhibition of CFTR (unknown origin) at 10 uM relative to control

Sequence of Cystic fibrosis transmembrane conductance regulator (Homo sapiens), P13569 [F508del] (P13569 as listed by the source): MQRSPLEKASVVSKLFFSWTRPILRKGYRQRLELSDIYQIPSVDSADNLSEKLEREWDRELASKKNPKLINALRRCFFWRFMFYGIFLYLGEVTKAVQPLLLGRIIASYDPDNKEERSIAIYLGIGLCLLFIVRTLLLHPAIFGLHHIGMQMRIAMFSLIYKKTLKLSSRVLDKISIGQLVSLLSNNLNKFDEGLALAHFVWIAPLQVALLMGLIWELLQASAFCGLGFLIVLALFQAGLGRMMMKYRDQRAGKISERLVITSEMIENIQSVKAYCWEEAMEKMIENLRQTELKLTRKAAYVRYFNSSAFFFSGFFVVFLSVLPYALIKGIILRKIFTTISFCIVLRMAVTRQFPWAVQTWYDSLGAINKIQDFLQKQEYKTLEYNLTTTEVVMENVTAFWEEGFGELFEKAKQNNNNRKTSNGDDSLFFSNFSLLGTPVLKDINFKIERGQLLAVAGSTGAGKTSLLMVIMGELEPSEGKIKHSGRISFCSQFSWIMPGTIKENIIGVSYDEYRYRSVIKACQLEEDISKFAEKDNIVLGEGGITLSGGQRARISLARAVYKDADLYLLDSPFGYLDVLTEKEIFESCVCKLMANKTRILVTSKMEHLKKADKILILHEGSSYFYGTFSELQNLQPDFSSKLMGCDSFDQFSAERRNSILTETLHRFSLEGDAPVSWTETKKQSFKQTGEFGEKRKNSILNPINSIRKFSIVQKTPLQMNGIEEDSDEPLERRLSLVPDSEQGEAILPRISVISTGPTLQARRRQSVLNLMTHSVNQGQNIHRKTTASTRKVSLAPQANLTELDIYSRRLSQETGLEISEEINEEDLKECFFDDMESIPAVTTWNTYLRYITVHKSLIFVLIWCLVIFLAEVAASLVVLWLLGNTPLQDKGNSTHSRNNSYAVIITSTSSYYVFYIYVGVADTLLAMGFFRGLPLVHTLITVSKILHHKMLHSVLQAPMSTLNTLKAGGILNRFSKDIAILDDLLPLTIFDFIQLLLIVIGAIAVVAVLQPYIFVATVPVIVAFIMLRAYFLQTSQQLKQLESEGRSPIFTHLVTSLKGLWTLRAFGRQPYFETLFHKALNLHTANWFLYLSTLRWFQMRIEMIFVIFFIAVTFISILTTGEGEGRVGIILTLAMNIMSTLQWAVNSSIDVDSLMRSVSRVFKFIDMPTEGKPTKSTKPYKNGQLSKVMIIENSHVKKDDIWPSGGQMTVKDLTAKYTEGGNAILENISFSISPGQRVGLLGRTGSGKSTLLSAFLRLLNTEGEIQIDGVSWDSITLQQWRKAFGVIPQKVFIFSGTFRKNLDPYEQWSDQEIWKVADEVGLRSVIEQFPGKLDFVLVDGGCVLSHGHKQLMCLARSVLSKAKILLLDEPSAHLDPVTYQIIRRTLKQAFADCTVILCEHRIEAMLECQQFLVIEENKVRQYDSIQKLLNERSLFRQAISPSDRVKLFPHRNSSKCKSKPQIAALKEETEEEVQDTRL

SMILES	fold change (FC) [1]	EC50 [2] [µM]	further results
N#CCc1nnc(-c2ccccn2)[nH]1	25		
N=C(N)NCCCC[C@H](O)CC(=O)N[C@@H](O)C(=O)NCCCCNCCCN		5.4	
O=C1CCC[C@@H]2[C@H]3CCCN4CCC[C@@H](CN12)[C@@H]34			Activity [3]: 53%
CCN(CC)c1ccc(N/N=C2\C(=O)C=Cc3ccccc32)cc1	15		
N=C(N)NCCCCCCC(=O)N[C@@H](O)C(=O)NCCCCNCCCN		5.4	
N#CC1=C(N)Oc2[nH]nc(-c3ccc(F)cc3)c2C1c1c[nH]nc1-c1ccc(F)cc1 (stereo unspecified)			inhibition [4]: 70%
